This note sets out measurements from patent publication US20220267390A1, “MPS MODIFIED PEPTIDES AND USE THEREOF” (The Regents of the University of California, priority 2019, published 2022).

Where no end group is shown, it is not given here.

In assay [1] the test system is LG704 oncospheres. Nature of the assay: RNA-seq of LG704 oncospheres. It counts as cell-based, human. The following applies: 50 μM. As to the method: These genes were then analyzed with GSEA to determine which functional pathways were most affected by MARCKS. Right, Heat map of cancer-stemness markers associated with MARCKS activity.
Targeting the MARCKS PSD is associated with inhibition of stem-like cell properties. In light of the importance of the PSD in the functionality of MARCKS protein, Applicant designed a 25-mer MPS peptide to mimic the MARCKS phosphorylation site domain (PSD). […] Applicant's initial studies have shown that elevation of phospho-MARCKS in lung cancer spheres acted in parallel with increased stemness markers, such as CD133, Oct3/4, SOX2 and Nanog (data not included). The oncospheres were derived from high MARCKS-expressing lung cancer cell lines (H1975 and CL1-5) and primary lung cancer cells (LG704 and LC3: pleural effusion cells isolated from patients with advanced stage) in non-adherent serum-free culture conditions as described previously^30-32. Flow cytometry confirmed that ˜80% of LG704 oncosphere cells are CD133-positive, a major lung CSCs marker. […] Through a comparison of transcriptome profiling between PBS- and MPS-treated LG704 oncospheres by RNA-seq, Applicant identified a total of 352 coding genes altered by MARCKS inhibition (FIG. 15, left). […] The sphere-forming ability was assessed by counting the number and size of tumor spheres (oncospheres) under a microscope. […]

The subject of assay [2] is primary IPF fibroblasts. Nature of the assay: Combination of nintedanib and MPS peptide, cell viability by MTT, Chou and Talalay CI. The following applies: nintedanib 62.5-2000 nM and/or MPS 6.25-200 μM, 72 hours. It counts as cell-based, human. The method, then:
FIGS. 12A-12E: (FIGS. 12A-12B) Combinatorial effect of MPS peptide with nintedanib on fibroblasts isolated from two IPF patients. Cells were treated with various closes of nintedanib (62.5-2000 nM) and/or MPS peptide (6.25-200 μM) for 72 hours, respectively. After single ([…]) or combined ([…]) treatment, cell viability was determined by MTT assays. (FIG. 12C) The Chou and Talalay CI (combination index) method was utilized to evaluate the therapeutic interactions between nintedanib and MPS peptide using the Calcusyn software. Gray line, additive effect of the combination of MPS peptide and the drug is represented at CI=1. (FIG. 12D) Cells were individually treated with 1 μM nintedanib, 100 μM MPS peptide or combinations of 1 μM nintedanib and 100 μM MPS peptide. After 48 hours, cell viability was determined by the trypan blue exclusion assay (n+3; *, p<0.05). […] Molecular basis of MPS peptide and its potential for increasing nintedanib efficacy. […] A kinetic assay confirmed that this peptide binds PIP2 with a dissociation constant of 17.64 nM (FIG. 10B). As expected, a decrease of PIP3 pools in whole cell lysates of MPS-treated IPF fibroblasts was observed (FIG. 10C), supporting the notion that MPS peptide is able to inhibit AKT activation through trapping PIP2. […]

For KKKKKRFSFKKSFKLSGFSFKKNKK [MPS peptide], the “cancer stemness genes (ABCC8, CDH5, PROM1 (CD133), ALDH1L1, FGFR2)” value in assay [1] is reported as “decreased”. In addition, in assay [2], the Cell viability result was “decreased”.
